The target in the assay is T1, human cloned 5-HT6 receptors (Homo sapiens, UniProt P50406).
T1 construct: expressed in transfected cells; host or cells: Hela cells
T1 sequence (P50406 whole entry): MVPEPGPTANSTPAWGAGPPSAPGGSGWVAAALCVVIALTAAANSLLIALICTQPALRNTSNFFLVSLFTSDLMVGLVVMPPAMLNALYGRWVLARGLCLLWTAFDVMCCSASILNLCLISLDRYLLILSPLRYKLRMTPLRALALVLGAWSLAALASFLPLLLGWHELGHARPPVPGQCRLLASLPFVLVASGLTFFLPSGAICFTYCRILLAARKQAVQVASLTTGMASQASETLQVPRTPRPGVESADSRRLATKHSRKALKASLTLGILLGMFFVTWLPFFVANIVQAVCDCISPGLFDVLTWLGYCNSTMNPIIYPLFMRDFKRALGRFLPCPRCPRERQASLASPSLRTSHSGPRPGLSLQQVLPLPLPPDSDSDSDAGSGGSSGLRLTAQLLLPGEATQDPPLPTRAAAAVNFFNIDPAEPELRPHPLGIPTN
Briefly: 5-HT6 binding affinity ([3H]-LSD displacement, membranes of Hela cells expressing human cloned 5-HT6 receptors). As to conditions: [3H]-LSD 3.0 nM, 120 min, room temperature, Hela cell membranes. The protocol: The affinity of test compounds for the serotonin 5-HT6 receptor is evaluated in the following manner. Cultured Hela cells expressing human cloned 5-HT6 receptors are harvested and centrifuged at low speed (1,000×g) for 10.0 min to remove the culture media. The harvested cells are suspended in half volume of fresh physiological phosphate buffered saline solution and recentrifuged at the same speed. This operation is repeated. The collected cells are then homogenized in ten volumes of 50 mM Tris.HCl (pH 7.4) and 0.5 mM EDTA. The homogenate is centrifuged at 40,000×g for 30.0 min and the precipitate is collected. The obtained pellet is resuspended in 10 volumes of Tris.HCl buffer and recentrifuged at the same speed. The final pellet is suspended in a small volume of Tris.HCl buffer and the tissue protein content is determined in aliquots of 10-25 μl volumes. Bovine Serum Albumin is used as the standard in the protein determination according to the method described in Lowry et al., J. Biol. Chem., 193:265 (1951). The volume of the suspended cell membranes is adjusted to give a tissue protein concentration of 1.0 mg/ml of suspension. The prepared membrane suspension (10 times concentrated) is aliquoted in 1.0 ml volumes and stored at −70° C. until used in subsequent binding experiments.
Binding experiments are performed in a 96 well microtiter plate format, in a total volume of 200 μl. […] The test compounds are added in 20.0 μl volume.
The reaction is allowed to proceed in the dark for 120 min at room temperature, at which time, the bound ligand-receptor complex is filtered off on a 96 well unifilter with a Packard Filtermate® 196 Harvester. The bound complex caught on the filter disk is allowed to air dry and the radioactivity is measured in a Packard TopCount® equipped with six photomultiplier detectors, after the addition of 40.0 μl Microscint®-20 scintillant to each shallow well. The unifilter plate is heat-sealed and counted in a PackardTopCount® with a tritium efficiency of 31.0%.
Binding in the presence of varying concentrations of test compound is expressed as a percentage of specific binding in the absence of test compound. The results are plotted as log % bound versus log concentration of test compound. […] A linear regression line of data points is plotted, from which the IC50 value is determined and the Ki value is determined based upon the following equation: Ki=IC50/(1+L/KD) where L is the concentration of the radioactive ligand used and KD is the dissociation constant of the ligand for the receptor, both expressed in nM.
“1-[(2,6-dichloroimidazo[2,1-b][1,3]thiazol-5-yl)sulfonyl]-3-(1,2,3,6-tetrahydropyridin-4-yl)-1,3-dihydro-2H-benzimidazol-2-one [Example 50]” yielded an inhibition constant (Ki) of 18 nM.

As for `CN(C)CCn1c(=O)n(S(=O)(=O)c2ccc(Cl)s2)c2ccccc21` [Example 4, 1-[(5-Chlorothien-2-yl)sulfonyl]-3-[2-(dimethylamino)ethyl]-1,3-dihydro-2H-benzimidazol-2-one], the Ki was found to be 43 nM.

`CN(C)CCn1c(=O)n(S(=O)(=O)c2c(Cl)nc3sccn23)c2ccccc21` [Example 5, 1-[(6-chloroimidazo[2,1-b][1,3]thiazol-5-yl)sulfonyl]-3-[2-(dimethylamino)ethyl]-1,3-dihydro-2H-benzimidazol-2-one] registered a Ki of 20 nM.

Turning to `CN(C)CCn1c(=O)n(S(=O)(=O)c2ccc3ccccc3c2)c2ccccc21` [Example 6, 1-[2-(dimethylamino)ethyl]-3-(2-naphthylsulfonyl)-1,3-dihydro-2H-benzimidazol-2-one], the Ki was found to be 17 nM.

Consider `CN(C)CCn1c(=O)n(S(=O)(=O)c2ccc(Br)s2)c2ccccc21` [Example 10, 1-[(5-bromothien-2-yl)sulfonyl]-3-[2-(dimethylamino)ethyl]-1,3-dihydro-2H-benzimidazol-2-one], for which the inhibition constant Ki amounted to 40 nM.

`NCCn1c(=O)n(S(=O)(=O)c2ccc(Cl)s2)c2ccccc21` [Example 17, 1-(2-Aminoethyl)-3-[(5-chlorothien-2-yl)sulfonyl]-1,3-dihydro-2H-benzimidazol-2-one] gave a Ki of 26 nM.

With `NCCn1c(=O)n(S(=O)(=O)c2c(Cl)nc3sccn23)c2ccccc21` [Example 18, 1-(2-aminoethyl)-3-[(6-chloroimidazo[2,1-b][1,3]thiazol-5-yl)sulfonyl]-1,3-dihydro-2H-benzimidazol-2-one], the inhibition constant (Ki) was 6 nM.

With `NCCn1c(=O)n(S(=O)(=O)c2ccc3ccccc3c2)c2ccccc21` [Example 19, 1-(2-aminoethyl)-3-(2-naphthylsulfonyl)-1,3-dihydro-2H-benzimidazol-2-one], the Ki came to 23 nM.

Take `NCCn1c(=O)n(S(=O)(=O)c2ccc(Br)s2)c2ccccc21` [Example 20, 1-(2-aminoethyl)-3-[(5-bromothien-2-yl)sulfonyl]-1,3-dihydro-2H-benzimidazol-2-one]: the Ki is 26 nM.

Molecule `O=c1n(C2CCNCC2)c2ccccc2n1S(=O)(=O)c1ccc2ccccc2c1` [Example 22, 3-(Naphth-2-ylsulfonyl)-1-piperidin-4-yl-1,3-dihydrobenzimidazol-2-one] displayed a Ki of 20 nM.

`O=c1n(C2CCNCC2)c2ccccc2n1S(=O)(=O)c1ccc(Cl)s1` [Example 23, 1-[(5-chlorothien-2-yl)sulfonyl]-3-piperidin-4-yl-1,3-dihydro-2H-benzimidazol-2-one] displayed a Ki of 20 nM. That is a double-digit nanomolar value.

Take `O=c1n(C2CCNCC2)c2ccccc2n1S(=O)(=O)c1ccc(Br)s1` [Example 24, 1-[(5-bromothien-2-yl)sulfonyl]-3-piperidin-4-yl-1,3-dihydro-2H-benzimidazol-2-one]: the Ki amounted to 5 nM.

Take `O=c1n(C2CCNCC2)c2ccccc2n1S(=O)(=O)c1cc(Cl)c(Cl)s1` [Example 25, 1-[(4,5-dichlorothien-2-yl)sulfonyl]-3-piperidin-4-yl-1,3-dihydro-2H-benzimidazol-2-one]: the Ki worked out at 32 nM.

The molecule `O=c1n(C2CCNCC2)c2ccccc2n1S(=O)(=O)c1cc(Cl)sc1Cl` [Example 26, 1-[(2,5-dichlorothien-3-yl)sulfonyl]-3-piperidin-4-yl-1,3-dihydro-2H-benzimidazol-2-one] showed a Ki of 34 nM.

`O=c1n(C2CCNCC2)c2ccccc2n1S(=O)(=O)c1cc(Br)c(Br)s1` [Example 27, 1-[(4,5-dibromothien-2-yl)sulfonyl]-3-piperidin-4-yl-1,3-dihydro-2H-benzimidazol-2-one] returned a Ki of 27 nM.

With `O=c1n(C2CCNCC2)c2ccccc2n1S(=O)(=O)c1cc(Br)c(Cl)s1` [Example 29, 1-[(4-bromo-5-chlorothien-2-yl)sulfonyl]-3-piperidin-4-yl-1,3-dihydro-2H-benzimidazol-2-one], the inhibitory constant (Ki) came to 20 nM. The Ki values of the last two molecules are within 1.5-fold of each other.

On to `O=c1n(C2CCNCC2)c2ccccc2n1S(=O)(=O)c1c(Cl)sc(Cl)c1Br` [Example 30, 1-[(4-bromo-2,5-dichlorothien-3-yl)sulfonyl]-3-piperidin-4-yl-1,3-dihydro-2H-benzimidazol-2-one], for which the affinity corresponds to a Ki of 42 nM.

Consider `Cc1c(S(=O)(=O)n2c(=O)n(C3CCNCC3)c3ccccc32)sc2ccc(Cl)cc12` [Example 31, 1-[(5-chloro-3-methyl-1-benzothien-2-yl)sulfonyl]-3-piperidin-4-yl-1,3-dihydro-2H-benzimidazol-2-one], for which the Ki came to 80 nM.

As to `O=c1n(C2CCNCC2)c2ccccc2n1S(=O)(=O)c1c(Cl)nc2sccn12` [Example 32, 1-[(6-chloroimidazo[2,1-b][1,3]thiazol-5-yl)sulfonyl]-3-piperidin-4-yl-1,3-dihydro-2H-benzimidazol-2-one], the inhibitory constant (Ki) was 46 nM. Against the preceding molecule, the Ki is about 1.7-fold lower.

`O=c1n(C2CCNCC2)c2ccccc2n1S(=O)(=O)c1c(Cl)nc2sc(Cl)cn12` [Example 33, 1-[(2,6-dichloroimidazo[2,1-b][1,3]thiazol-5-yl)sulfonyl]-3-piperidin-4-yl-1,3-dihydro-2H-benzimidazol-2-one]: the Ki amounted to 23 nM.

`O=c1n(C2CCNCC2)c2ccccc2n1S(=O)(=O)c1c(Cl)nc2ccccn12` [Example 34, 1-[(2-chloroimidazo[1,2-a]pyridin-3-yl)sulfonyl]-3-piperidin-4-yl-1,3-dihydro-2H-benzimidazol-2-one] returned a Ki of 77 nM.

Consider `O=c1n(C2CCNCC2)c2ccccc2n1S(=O)(=O)c1cccc2nsnc12` [Example 38, 1-[(2,1,3-benzothiadiazol-4-yl)sulfonyl]-3-piperidin-4-yl-1,3-dihydro-2H-benzimidazol-2-one], for which the Ki was found to be 45 nM.

The molecule `O=c1n(C2=CCNCC2)c2ccccc2n1S(=O)(=O)c1ccc2ccccc2c1` [Example 39, 1-(2-naphthylsulfonyl)-3-(1,2,3,6-tetrahydropyridin-4-yl)-1,3-dihydro-2H-benzimidazol-2-one] registered a Ki of 6 nM.

In turn, `O=c1n(C2=CCNCC2)c2ccccc2n1S(=O)(=O)c1ccc(Cl)s1` [Example 40, 1-[(5-chlorothien-2-yl)sulfonyl]-3-(1,2,3,6-tetrahydropyridin-4-yl)-1,3-dihydro-2H-benzimidazol-2-one] had an inhibitory constant (Ki) of 5 nM. This Ki and that of the molecule before are within 1.5-fold of each other.

In turn, `O=c1n(C2=CCNCC2)c2ccccc2n1S(=O)(=O)c1ccc(Br)s1` [Example 41, 1-[(5-bromothien-2-yl)sulfonyl]-3-(1,2,3,6-tetrahydropyridin-4-yl)-1,3-dihydro-2H-benzimidazol-2-one] displayed a Ki of 4 nM.

Turning to `O=c1n(C2=CCNCC2)c2ccccc2n1S(=O)(=O)c1cc(Cl)c(Cl)s1` [Example 42, 1-[(4,5-dichlorothien-2-yl)sulfonyl]-3-(1,2,3,6-tetrahydropyridin-4-yl)-1,3-dihydro-2H-benzimidazol-2-one], the inhibitory constant (Ki) turned out to be 15 nM.

Take `O=c1n(C2=CCNCC2)c2ccccc2n1S(=O)(=O)c1cc(Cl)sc1Cl` [Example 43, 1-[(2,5-dichlorothien-3-yl)sulfonyl]-3-(1,2,3,6-tetrahydropyridin-4-yl)-1,3-dihydro-2H-benzimidazol-2-one]: the inhibition constant (Ki) stood at 9 nM.

In turn, `O=c1n(C2=CCNCC2)c2ccccc2n1S(=O)(=O)c1sc(Cl)cc1Br` [Example 45, 1-[(3-bromo-5-chlorothien-2-yl)sulfonyl]-3-(1,2,3,6-tetrahydropyridin-4-yl)-1,3-dihydro-2H-benzimidazol-2-one] had a Ki of 10 nM.

Consider `O=c1n(C2=CCNCC2)c2ccccc2n1S(=O)(=O)c1cc(Br)c(Cl)s1` [Example 46, 1-[(4-bromo-5-chlorothien-2-yl)sulfonyl]-3-(1,2,3,6-tetrahydropyridin-4-yl)-1,3-dihydro-2H-benzimidazol-2-one], for which the Ki stood at 9 nM.

Take `Cc1c(S(=O)(=O)n2c(=O)n(C3=CCNCC3)c3ccccc32)sc2ccc(Cl)cc12` [Example 48, 1-[(5-chloro-3-methyl-1-benzothien-2-yl)sulfonyl]-3-(1,2,3,6-tetrahydropyridin-4-yl)-1,3-dihydro-2H-benzimidazol-2-one]: the affinity corresponds to a Ki of 49 nM. This Ki is about 5.4-fold higher than that of the molecule before.

In turn, `O=c1n(C2=CCNCC2)c2ccccc2n1S(=O)(=O)c1c(Cl)nc2sccn12` [Example 49, 1-[(6-chloroimidazo[2,1-b][1,3]thiazol-5-yl)sulfonyl]-3-(1,2,3,6-tetrahydropyridin-4-yl)-1,3-dihydro-2H-benzimidazol-2-one] showed an inhibition constant (Ki) of 2 nM.

The Ki is the dissociation constant of the complex between target and ligand, obtained from inhibition or displacement. Read a high Ki as lower affinity.
